US8877742B2, “Compounds” (GlaxoSmithKline Intellectual Property Limited, priority 2011, dated 2014)
Values belong to the compound of their own block, whether it stands above or below them.

Target: T1, NOX2 in differentiated HL60 cells (Homo sapiens, UniProt P04839)
T1 construct: Differentiation of HL-60 cells to granulocytes increases NOX2 expression; endogenous in cells; host or cells: HL60 cells differentiated into neutrophil-like cells with 1.3% DMSO
T1 sequence (P04839 2-570 limits assumed): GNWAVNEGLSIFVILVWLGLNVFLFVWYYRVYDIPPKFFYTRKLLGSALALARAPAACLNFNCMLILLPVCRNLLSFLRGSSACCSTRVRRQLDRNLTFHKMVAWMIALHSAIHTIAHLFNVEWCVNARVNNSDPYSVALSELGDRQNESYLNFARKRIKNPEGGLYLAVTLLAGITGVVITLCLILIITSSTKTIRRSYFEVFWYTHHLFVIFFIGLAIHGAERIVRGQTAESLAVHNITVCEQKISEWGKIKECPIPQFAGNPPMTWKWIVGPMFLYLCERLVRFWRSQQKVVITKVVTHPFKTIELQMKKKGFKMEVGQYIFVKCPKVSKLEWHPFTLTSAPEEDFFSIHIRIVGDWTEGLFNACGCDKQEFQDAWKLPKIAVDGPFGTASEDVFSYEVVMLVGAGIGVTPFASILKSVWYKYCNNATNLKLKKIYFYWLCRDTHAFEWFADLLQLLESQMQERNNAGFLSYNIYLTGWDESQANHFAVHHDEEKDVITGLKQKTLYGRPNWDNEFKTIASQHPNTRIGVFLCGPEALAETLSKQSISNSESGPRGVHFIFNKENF
T1 sequence (P13498 2-195 partner limits assumed): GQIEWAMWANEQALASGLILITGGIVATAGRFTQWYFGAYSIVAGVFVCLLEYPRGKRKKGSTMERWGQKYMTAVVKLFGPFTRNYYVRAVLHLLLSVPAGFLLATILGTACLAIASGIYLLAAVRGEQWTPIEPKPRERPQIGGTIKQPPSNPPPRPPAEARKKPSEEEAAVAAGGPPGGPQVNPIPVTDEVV
Assay: HL60 cell-based assays: superoxide production by NOX2 (Oxyburst Assay 1 or L012 Assay 2)
Settings: PMA-stimulated differentiated HL60 cells; in at least one of the HL60 assays (Oxyburst fluorescence or L012 luminescence)
Protocol: In the cell-based assay, superoxide production by NOX2 was measured in differentiated HL60 cells, a human myelomonocytic leukemia cell line, using either Oxyburst (Assay1) or L012 (Assay2). Differentiation of HL-60 cells to granulocytes increases NOX2 expression. The phorbol 12-myristate 13-acetate (PMA) was used to stimulate the production of superoxide in HL60 cells by activating protein kinase C, which then activated the NADPH oxidase (NOX) enzymes. Inhibition of NOX2 enzyme was detected by the reversal of fluorescence signal (Assay 1) or luminescence signal (Assay2). The control inhibitor used was diphenyleneiodonium chloride (DPI), a […] inhibitor capable of non-selectively inhibiting superoxide produced by NOX enzymes.
Assay 1: in this high-throughput screening assay, oxyburst green bovine serum albumin (BSA) was used to detect superoxide production in HL60 cells. Oxidation of Oxyburst green BSA by hydrogen peroxide as a result of the activation of NOX2 by PMA. Oxyburst green BSA fluorescence was measured at excitation 485 nm and emission 530 nm.
Assay 2: in this assay, a chemiluminescence probe, L-012 was used to detect superoxide production in HL60 cells. L-012 reacted with various types of reactive oxygen species generated by PMA-activated HL60 cells. Luminescence was measured using Tecan Infinite 500.
The HL60 cells were differentiated into neutrophil-like cells by adding 1.3% DMSO in the media for 3-7 days (Hua, J et al. (2000) Journal of Leukocyte Biology. 68:216-224). Iscove's Modified Dulbecco's Media (IMDM) with L-Glutamine and 25 mM HEPES buffer, Fetal Bovine Serum (FBS), Penicillin/Streptomycin, Oxyburst Green BSA, PBS, and HBSS buffer with Calcium Chloride and Magnesium Chloride were purchased from Invitrogen (Catalog #s: 12440-061, 10500-064, 15140-163, O-13291, 14190-250, and 14025-134 respectively). Phorbol 12-myristate 13-acetate (PMA), glucose, and CHAPS were purchased from Sigma (Catalog #s: 79346, D-9434, and C5070 respectively). Diphenyleneiodonium chloride (DPI) was purchased from Toronto Research Chemicals (Catalog #: D491500). L-012 was purchased from Wako Chemical (Catalog #: 120-04891). Dimethyl sulfoxide (DMSO) was purchased EMD Chemicals (VWR Catalog #: MX1456-1). Multidrop combi was purchased from Thermo Electron Corporation (Waltham, Mass., USA). Hummingbird nanoliter liquid dispenser was purchased from Genomics Solution (Ann Arbor, Mich., USA). 384 well low-volume plates and polypropylene 384 well clear plates were purchased from Greiner (Catalog #: 784076 and 781280 respectively). 96 well plate and 384 well plate black assay plates were purchased from Greiner (Catalog #: 655094 and 781098). 96 well plate for compound serial dilution was purchased from Corning (Catalog #: 9017). Acquest or Analyst fluorescence plate reader was purchased from LJL Biosystems/Molecular Devices (California, USA). Tecan Infinite 500 was purchased from Tecan (Switzerland).
HL60 cells were thawed and resuspended in Cells media. The cells were centrifuged at 1200 rpm for 5 minutes. Media was aspirated and the cells were resuspended in Cells buffer. The cells were counted and resuspended to 0.5×10^6 cells/mL.
Full inhibition controls were dispensed using 100 nL/well of 1 mM DPI in DMSO to column 18 of a 384 well plate. Compounds were dispensed using 100 nL/well. Full activity controls were dispensed using 100 nL/well of 4 uM PMA in DMSO. Oxyburst Green BSA was added to cell solution at 10 ug/mL. Using the Multidrop, 10 uL cell solution was added to the entire assay plate. The assay plate was incubated at room temperature for 100 minutes. Fluorescence reading was taken after 100 minutes at excitation 485 and emission 530 using 505 Dichroic on the Acquest or Analyst.
Serial dilution (1:3.16 fold serial dilution) of the compounds was performed in 100% DMSO in 96 well plate—Row B-H Column 1-10. Row A, Column 1-10 contained DPI serial dilution. Starting concentration was 10^−2 M (10 mM). […]

Compound: CN1C(=O)COc2ccc(-c3cn(C)c4nccc(NS(=O)(=O)c5ccccc5)c34)cc21 [Example 39, N-(1-methyl-3-(4-methyl-3-oxo-3,4-dihydro-2H-benzo[b][1,4]oxazin-6-yl)-1H-pyrrolo[2,3-b]pyridin-4-yl)benzenesulfonamide]
- IC50: > 100 µM

Compound: Cn1c(-c2cc[nH]n2)c(-c2cccc(N3CCCC3)c2)c2c(NS(=O)(=O)c3ccccc3)ccnc21 [Example 173, N-(1-methyl-2-(1H-pyrazol-3-yl)-3-(3-(pyrrolidin-1-yl)phenyl)-1H-pyrrolo[2,3-b]pyridin-4-yl)benzenesulfonamide]
- IC50: > 100 µM

Compound: CN1Cc2ccc(-c3cn(C)c4nccc(NS(=O)(=O)c5ccccc5)c34)cc2C1 [Example 251, N-[1-methyl-3-(2-methyl-2,3-dihydro-1H-isoindol-5-yl)-1H-pyrrolo[2,3-b]pyridin-4-yl]benzenesulfonamide]
- IC50: > 100 µM

Continued, values first:

- IC50: > 100 µM
Compound: CC(C)N1CCN(c2cncc(-c3cn(C)c4nccc(NS(=O)(=O)c5cccc(Cl)c5)c34)c2)CC1 [Example 25, 3-chloro-N-(3-(5-(4-isopropylpiperazin-1-yl)pyridin-3-yl)-1-methyl-1H-pyrrolo[2,3-b]pyridin-4-yl)benzenesulfonamide]

- IC50: > 100 µM
Compound: COc1cc(-c2cn(C)c3nccc(NS(=O)(=O)c4ccccc4)c23)cc(N2CCN(C)CC2)c1 [Example 28, N-(3-(3-methoxy-5-(4-methylpiperazin-1-yl)phenyl)-1-methyl-1H-pyrrolo[2,3-b]pyridin-4-yl)benzenesulfonamide]

- IC50: > 100 µM
Compound: COc1cc(-c2cn(C)c3nccc(NS(=O)(=O)c4ccccc4)c23)cc(N2CCN(C(C)C)CC2)c1 [Example 29, N-(3-(3-(4-isopropylpiperazin-1-yl)-5-methoxyphenyl)-1-methyl-1H-pyrrolo[2,3-b]pyridin-4-yl)benzenesulfonamide]
